Source: patent publication US20230146455A1, “TREATMENT OF INFLAMMATORY DISEASES WITH PEPTIDES AND PHARMACEUTICAL COMPOSITIONS” (Yuyu Pharma, Inc., priority 2020, published 2023)
Values joined by “and” are separate entries in the source; they are usually repeats but may differ in a detail not shown here. Equal entries are not always repeated. Where a SMILES comes first, the peptide text is derived from it. [ ]: non-standard residue; d: D form. Hyp = O=C(O)[C@@H]1C[C@@H](O)CN1

Key:
[1] = tested on: Leptin; experiment: Example 8 main study Luminex, LPS hPBMCs: Leptin; assay type: cell-based, human
Experimental: (§1) Human PBMCs were pretreated with YY-101, YDE-011, YDE-043 or reference compound; Xiidra® at various concentration (ranging from […] to 500 nM) for 2 h before stimulation. An equal volume of 0.5% DMSO was used as a vehicle control. Then, the cells were treated with LPS at 5 ug/ml, which was selected based on the pilot study. The supernatants from treated cells were harvested at 24 h and placed in a 96 well for Luminex cytokine & chemokine profiling using a Luminex 200 multiplex assay (Luminex; R&D system, USA).
(§2) The main study arm with triplicate wells per group in a 24-well plate: • 1. Blank • 2. PBMC: 0.5% DMSO • 3. PBMC+LPS (5 ug/ml) • 4. PBMC+YY-101 500 nM • 5. PBMC+YY-101 50 nM • 6. PBMC+YY-101 5 nM • 7. PBMC+YY-101 0.5 nM • 8. PBMC+LPS (5 ug/ml)+Xiidra® 500 nM • 9. PBMC+LPS (5 ug/ml)+Xiidra® 50 nM • 10. PBMC+LPS (5 ug/ml)+Xiidra® 5 nM • 11. PBMC+LPS (5 ug/ml)+Xiidra® 0.5 nM • 12. PBMC+LPS (5 ug/ml)+Xiidra® 0.05 nM • 13. PBMC+LPS (5 ug/ml)+Xiidra® 0.005 nM • 14. PBMC+LPS (5 ug/ml)+YY-101 500 nM • 15. PBMC+LPS (5 ug/ml)+YY-101 50 nM • 16. PBMC+LPS (5 ug/ml)+YY-101 5 nM • 17. PBMC+LPS (5 ug/ml)+YY-101 0.5 nM • 18. PBMC+LPS (5 ug/ml)+YY-101 0.05 nM • 19. PBMC+LPS (5 ug/ml)+YY-101 0.005 nM • 20. PBMC+LPS (5 ug/ml)+YDE-011 500 nM • 21. PBMC+LPS (5 ug/ml)+YDE-011 50 nM • 22. PBMC+LPS (5 ug/ml)+YDE-011 5 nM • 23. PBMC+LPS (5 ug/ml)+YDE-011 0.5 nM • 24. PBMC+LPS (5 ug/ml)+YDE-011 0.05 nM • 25. PBMC+LPS (5 ug/ml)+YDE-011 0.005 nM • 26. PBMC+LPS (5 ug/ml)+YDE-043 500 nM • 27. PBMC+LPS (5 ug/ml)+YDE-043 50 nM • 28. PBMC+LPS (5 ug/ml)+YDE-043 5 nM • 29. PBMC+LPS (5 ug/ml)+YDE-043 0.5 nM • 30. PBMC+LPS (5 ug/ml)+YDE-043 0.05 nM • 31. PBMC+LPS (5 ug/ml)+YDE-043 0.005 nM
(§3) Multiplex assay was used to measure 30 cytokines and chemokines. The 1:200 diluted cell supernatant and serial dilution of the standard were dispensed into a 96 well plate at 50 ul/well. Then, the pre-mixed cocktail of antibody-coated magnetic beads was dispensed at 50 ul/well and incubated at room temperature for 2 h in a horizontal orbital microplate shaker at 800±500 rpm. The beads were washed using a magnetic device to prevent loss. The biotin-antibody was dispensed in 50 ul of each well and incubated at room temperature for 1 h in a shaker at 800±500 rpm. After washing, streptavidin-PE was added at 50 ul/well and incubated at room temperature for 30 min in a shaker under the same conditions. Finally, after washing, wash buffer (100 ul/well) was added to the plate and incubated in a shaker for 2 min. The Luminex™ 200 setting were set according to the manufacturer's protocol. The data was calculated with a standard five-parameter logistic nonlinear regression analysis of the data (xPonent software 4.2, USA). Results were presented as concentration (ng/ml or pg/ml).

[2] = tested on: IL-1 alpha/IL-1F1; experiment: Example 8 main study Luminex, LPS hPBMCs: IL-1 alpha/IL-1F1; assay type: cell-based, human
Experimental: as §1, §2, §3

[3] = PBMC + LPS(5 ug/ml), test article 0.005 nM
[4] = PBMC + LPS(5 ug/ml), test article 0.05 nM
[5] = PBMC + LPS(5 ug/ml), test article 0.5 nM
[6] = PBMC + LPS(5 ug/ml), test article 5 nM
[7] = PBMC + LPS(5 ug/ml), test article 50 nM
[8] = PBMC + LPS(5 ug/ml), test article 500 nM
[9] = PBMC without LPS, test article 0.5 nM
[10] = PBMC without LPS, test article 5 nM
[11] = PBMC without LPS, test article 0.05 uM
[12] = PBMC without LPS, test article 50 nM
[13] = PBMC without LPS, test article 500 nM
[14] = PBMC + LPS(5 ug/ml) + test article 0.005 nM, Mean
[15] = PBMC + LPS(5 ug/ml) + test article 0.005 nM, individual replicates
[16] = PBMC + LPS(5 ug/ml) + test article 0.05 nM, Mean
[17] = PBMC + LPS(5 ug/ml) + test article 0.05 nM, individual replicates
[18] = PBMC + LPS(5 ug/ml) + test article 0.5 nM, Mean
[19] = PBMC + LPS(5 ug/ml) + test article 0.5 nM, individual replicates
[20] = PBMC + LPS(5 ug/ml) + test article 5 nM, Mean
[21] = PBMC + LPS(5 ug/ml) + test article 5 nM, individual replicates
[22] = PBMC + LPS(5 ug/ml) + test article 50 nM, Mean
[23] = PBMC + LPS(5 ug/ml) + test article 50 nM, individual replicates
[24] = PBMC + LPS(5 ug/ml) + test article 500 nM, Mean
[25] = PBMC + LPS(5 ug/ml) + test article 500 nM, individual replicates
[26] = PBMC + test article 0.5 nM, no LPS, Mean
[27] = PBMC + test article 0.5 nM, no LPS, individual replicates (1st, 2nd)
[28] = PBMC + test article 5 nM, no LPS, Mean
[29] = PBMC + test article 5 nM, no LPS, individual replicates (1st, 2nd)
[30] = PBMC + test article 0.05 uM, no LPS, Mean
[31] = PBMC + test article 0.05 uM, no LPS, individual replicates (1st, 2nd)
[32] = PBMC + test article 50 nM, no LPS, Mean
[33] = PBMC + test article 50 nM, no LPS, individual replicates (1st, 2nd)
[34] = PBMC + test article 500 nM, no LPS, Mean
[35] = PBMC + test article 500 nM, no LPS, individual replicates (1st, 2nd)

CC(C)C[C@H](NC(=O)CNC(=O)[C@H](CC(=O)O)NC(=O)[C@H](CCC(N)=O)NC(=O)CNC(=O)[C@@H]1C[C@@H](O)CN1)C(=O)N[C@@H](C)C(=O)NCC(=O)N1CCC[C@H]1C(=O)N[C@@H](CCCCN)C(=O)O [YY-101] (H-[Hyp]GQDGLAGPK-OH; N-terminus and C-terminus assumed)
Leptin Concentration (pg/ml), Mean [1, 3]: 16686.7 pg/mL
Leptin Concentration (pg/ml), single replicates [1, 3]: 19789.4 pg/ml (2×) and 10481.4 pg/ml
Leptin Concentration (pg/ml), Mean [1, 4]: 16746.9 pg/mL
Leptin Concentration (pg/ml), single replicates [1, 4]: 17222.7 pg/ml (2×) and 15795.3 pg/ml
Leptin Concentration (pg/ml), Mean [1, 5]: 16226.8 pg/mL
Leptin Concentration (pg/ml), single replicates [1, 5]: 17222.7 pg/ml (2×) and 14234.9 pg/ml
Leptin Concentration (pg/ml), Mean [1, 6]: 21157.1 pg/mL
Leptin Concentration (pg/ml), single replicates [1, 6]: 22079.2 pg/mL and 17222.7 pg/mL and 24169.3 pg/mL
Leptin Concentration (pg/ml), Mean [1, 7]: 15230.8 pg/mL
Leptin Concentration (pg/ml), single replicates [1, 7]: 17222.7 pg/ml and 14234.9 pg/ml (2×)
Leptin Concentration (pg/ml), Mean [1, 8]: 18933.8 pg/mL
Leptin Concentration (pg/ml), single replicates [1, 8]: 19789.4 pg/ml (2×) and 17222.7 pg/ml
Leptin Concentration (pg/ml), Mean [1, 9]: 15728.8 pg/mL
Leptin Concentration (pg/ml), single replicates [1, 9]: 14234.9 pg/mL and 17222.7 pg/mL
Leptin Concentration (pg/ml), Mean [1, 10]: 19092.9 pg/mL
Leptin Concentration (pg/ml), single replicates [1, 10]: 17222.7 pg/mL and 20963.1 pg/mL
Leptin Concentration (pg/ml), Mean [1, 11]: 18506.0 pg/mL
Leptin Concentration (pg/ml), single replicates [1, 11]: 19789.4 pg/mL and 17222.7 pg/mL
Leptin Concentration (pg/ml), Mean [1, 12]: 24092.8 pg/mL
Leptin Concentration (pg/ml), single replicates [1, 12]: 26106.3 pg/mL and 22079.2 pg/mL
Leptin Concentration (pg/ml), Mean [1, 13]: 20376.3 pg/mL
Leptin Concentration (pg/ml), single replicates [1, 13]: 19789.4 pg/mL and 20963.1 pg/mL
IL-1 alpha/IL-1F1 Concentration [2, 14]: 424.2 pg/mL
IL-1 alpha/IL-1F1 MFI [2, 14]: 28.3
IL-1 alpha/IL-1F1 Concentration [2, 15]: 414.2 pg/mL and 383.2 pg/mL and 475.3 pg/mL
IL-1 alpha/IL-1F1 MFI [2, 15]: 28.0 and 27.0 and 30.0
IL-1 alpha/IL-1F1 Concentration [2, 16]: 479.4 pg/mL
IL-1 alpha/IL-1F1 MFI [2, 16]: 30.2
IL-1 alpha/IL-1F1 Concentration [2, 17]: 414.2 pg/ml (2×) and 609.8 pg/ml
IL-1 alpha/IL-1F1 MFI [2, 17]: 28.0 (2×) and 34.5
IL-1 alpha/IL-1F1 Concentration [2, 18]: 455.0 pg/mL
IL-1 alpha/IL-1F1 MFI [2, 18]: 29.3
IL-1 alpha/IL-1F1 Concentration [2, 19]: 460.1 pg/ml (2×) and 444.9 pg/ml
IL-1 alpha/IL-1F1 MFI [2, 19]: 29.5 (2×) and 29.0
IL-1 alpha/IL-1F1 Concentration [2, 20]: 485.3 pg/mL
IL-1 alpha/IL-1F1 MFI [2, 20]: 30.3
IL-1 alpha/IL-1F1 Concentration [2, 21]: 444.9 pg/mL and 475.3 pg/mL and 535.6 pg/mL
IL-1 alpha/IL-1F1 MFI [2, 21]: 29.0 and 30.0 and 32.0
IL-1 alpha/IL-1F1 Concentration [2, 22]: 429.2 pg/mL
IL-1 alpha/IL-1F1 MFI [2, 22]: 28.5
IL-1 alpha/IL-1F1 Concentration [2, 23]: 383.2 pg/mL and 398.7 pg/mL and 505.6 pg/mL
IL-1 alpha/IL-1F1 MFI [2, 23]: 27.0 and 27.5 and 31.0
IL-1 alpha/IL-1F1 Concentration [2, 24]: 449.6 pg/mL
IL-1 alpha/IL-1F1 MFI [2, 24]: 29.2
IL-1 alpha/IL-1F1 Concentration [2, 25]: 460.1 pg/mL and 505.6 pg/mL and 383.2 pg/mL
IL-1 alpha/IL-1F1 MFI [2, 25]: 29.5 and 31.0 and 27.0
IL-1 alpha/IL-1F1 Concentration [2, 26]: 155.5 pg/mL
IL-1 alpha/IL-1F1 MFI [2, 26]: 20.0
IL-1 alpha/IL-1F1 Concentration [2, 27]: 155.5 pg/mL
IL-1 alpha/IL-1F1 MFI [2, 27]: 20.0
IL-1 alpha/IL-1F1 Concentration [2, 28]: 155.5 pg/mL
IL-1 alpha/IL-1F1 MFI [2, 28]: 20.0
IL-1 alpha/IL-1F1 Concentration [2, 29]: 155.5 pg/mL
IL-1 alpha/IL-1F1 MFI [2, 29]: 20.0
IL-1 alpha/IL-1F1 Concentration [2, 30]: 92.0 pg/mL
IL-1 alpha/IL-1F1 MFI [2, 30]: 18.3
IL-1 alpha/IL-1F1 Concentration [2, 31]: 45.8 pg/mL and 138.1 pg/mL
IL-1 alpha/IL-1F1 MFI [2, 31]: 17.0 and 19.5
IL-1 alpha/IL-1F1 Concentration [2, 32]: 111.1 pg/mL
IL-1 alpha/IL-1F1 MFI [2, 32]: 18.8
IL-1 alpha/IL-1F1 Concentration [2, 33]: 138.1 pg/mL and 84.2 pg/mL
IL-1 alpha/IL-1F1 MFI [2, 33]: 19.5 and 18.0
IL-1 alpha/IL-1F1 Concentration [2, 34]: 84.2 pg/mL
IL-1 alpha/IL-1F1 MFI [2, 34]: 18.0
IL-1 alpha/IL-1F1 Concentration [2, 35]: 84.2 pg/mL
IL-1 alpha/IL-1F1 MFI [2, 35]: 18.0
